Experimental data as given in patent US20250313574A1, “SIALIC ACID DERIVATIVES AND METHODS OF USING SAME” (EISAI R&D MANAGEMENT CO., LTD., priority 2022, published 2025).

Columns and labels:
[1] = target: Recombinant human CD33 protein (Homo sapiens (Human), UniProt P20138); assay: CD33 competitive binding assay for HTS drug screen (fluorescent multivalent sialic acid probe)
Outline: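 Recombinant human CD33, coated overnight at 4° C from 10 μg/ml in pH 5.5 acetate, was preincubated briefly with compound. It was then exposed to a multivalent neutravidin/FITC/sialic acid analog A-375 probe (final 5 μM neutravidin, 15 μM A-375, 5 μM FITC) for 30 min at room temperature. After washing, bound FITC fluorescence was read.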

[2] = target: Recombinant Human Siglec-3/CD33 protein (His-CD33) (Homo sapiens (Human), UniProt P20138); assay: Differential scanning fluorimetry (DSF) thermal shift assay; format: binding
[3] = thermal melt shift of 0.5 μM CD33 protein with 50 μM compound
[4] = difference in thermal melt of CD33 protein (0.5 μM) with 50 μM compound

Recombinant human CD33 protein, sequence (P20138 18-259): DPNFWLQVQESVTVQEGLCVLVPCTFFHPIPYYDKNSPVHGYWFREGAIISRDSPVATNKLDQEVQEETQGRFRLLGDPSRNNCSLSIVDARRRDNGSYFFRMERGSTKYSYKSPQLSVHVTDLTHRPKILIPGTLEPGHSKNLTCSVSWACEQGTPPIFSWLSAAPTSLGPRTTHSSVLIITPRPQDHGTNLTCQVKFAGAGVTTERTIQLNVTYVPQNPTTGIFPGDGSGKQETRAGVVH
Recombinant Human Siglec-3/CD33 protein (His-CD33), sequence (P20138 18-259): as above

| EC50 [1] | DSF (dTmD) [2, 3] | DSF (dTmD) [2, 4] | SMILES |
| --- | --- | --- | --- |
| 115 nM | 9.4 | – | CC(=O)N[C@H]1[C@H]([C@H](O)[C@H](O)CNC(=O)c2cc(C)c(O)c(C)c2)O[C@@](CCN2CCOC[C@@]23CCN(C(=O)C=C(C)C)C3)(C(=O)O)C[C@@H]1O [A-078] |
| 10600 nM | – | 1.1 °C | CC(=O)N[C@H]1[C@H]([C@H](O)[C@H](O)CNC(=O)c2cc(C)c(O)c(C)c2)O[C@@](C[C@@H]2COCC3(CCN(C(=O)OC(C)(C)C)CC3)N2)(C(=O)O)C[C@@H]1O [A-230] |
| 4000 nM | 6.9 | – | CC(=O)N[C@H]1[C@H]([C@H](O)[C@H](O)CNC(=O)c2cc(F)c(C(F)(F)F)c(F)c2)O[C@@](CCN2CCOC[C@@]23CCN(C(=O)OC(C)(C)C)C3)(C(=O)O)C[C@@H]1O [A-166] |
| 163 nM | 9.4 | – | CC(=O)N[C@H]1[C@H]([C@H](O)[C@H](O)CNC(=O)c2cc(C)c(=O)n(C)c2)O[C@@](CCN2CCOC[C@@]23CCN(C(=O)OC(C)(C)C)C3)(C(=O)O)C[C@@H]1O [A-191] |
| 4610 nM | – | 4.2 °C | CC(=O)N[C@H]1[C@H]([C@H](O)[C@H](O)CNC(=O)c2cc(C)c(O)c(C)c2)O[C@@](C/C=C/c2cnc(CNC(=O)C3CCCOC3)s2)(C(=O)O)C[C@@H]1O (some centres unmarked) [A-294] |
| 3460 nM | – | 6.5 °C | Cc1cc(C(=O)NC[C@@H](O)[C@@H](O)[C@@H]2O[C@@](C/C=C/c3cccc(CNC(=O)c4ccccc4C(F)(F)F)c3)(C(=O)O)C[C@H](O)[C@H]2NC(=O)Cn2cc(C3CCCCC3)nn2)cc(C)c1O [A-269] |
| 1440 nM | – | 4.4 °C | Cc1cc(C(=O)NC[C@@H](O)[C@@H](O)[C@@H]2O[C@@](C/C=C/c3cccc(CNC(=O)C4CCOCC4)c3)(C(=O)O)C[C@H](O)[C@H]2NC(=O)Cn2cc(C3CCCCC3)nn2)cc(C)c1O [A-261] |
| 1170 nM | 6.6 | – | CC(=O)N[C@H]1[C@H]([C@H](O)[C@H](O)CNC(=O)c2cn(C)nc2C(F)(F)F)O[C@@](CCN2CCOC[C@@]23CCN(C(=O)OC(C)(C)C)C3)(C(=O)O)C[C@@H]1O [A-174] |
| 477 nM | – | 6.4 °C | CC(=O)N[C@H]1[C@H]([C@H](O)[C@H](O)CNC(=O)c2cc(C)c(O)c(C)c2)O[C@@](CC2OC(C)(C)O[C@H]2c2cccc(NC(=O)OC(C)(C)C)c2)(C(=O)O)C[C@@H]1O (some centres unmarked) [A-296] |
| 13200 nM | – | 3.3 °C | Cc1cc(C(=O)NC[C@@H](O)[C@@H](O)[C@@H]2O[C@@](OC3CCCCC3NC(=O)CN(C)C(=O)OCc3ccccc3)(C(=O)O)C[C@H](O)[C@H]2NC(=O)Cn2cc(C3CCCCC3)nn2)cc(C)c1O (some centres unmarked) [A-325] |
| 29 nM | 13.6 | – | CC(=O)N[C@H]1[C@H]([C@H](O)[C@H](O)CNC(=O)c2ccc3occc3c2)O[C@@](CCN2CCOC[C@@]23CCN(C(=O)OC(C)(C)C)C3)(C(=O)O)C[C@@H]1O [A-121] |
| 10 nM | 15.0 | – | CC(=O)N[C@H]1[C@H]([C@H](O)[C@H](O)CNC(=O)c2ccc3[nH]ccc3c2)O[C@@](CCN2CCOC[C@@]23CCN(C(=O)OC(C)(C)C)C3)(C(=O)O)C[C@@H]1O [A-129] |
| 1380 nM | – | 6.2 °C | CC(=O)N1CCC(C(=O)NCc2cccc(/C=C/C[C@]3(C(=O)O)C[C@H](O)[C@@H](NC(=O)Cn4cc(C5CCCCC5)nn4)[C@H]([C@H](O)[C@H](O)CNC(=O)c4cc(C)c(O)c(C)c4)O3)c2)CC1 [A-266] |
| 1140 nM | – | 4.2 °C | CC(=O)N[C@H]1[C@H]([C@H](O)[C@H](O)CNC(=O)c2cc(C)c(O)c(C)c2)O[C@@](CC2OC(C)(C)O[C@H]2c2cccc(CC(=O)OC(C)(C)C)c2)(C(=O)O)C[C@@H]1O (some centres unmarked) [A-315] |
| 6360 nM | – | 2.6 °C | CC(=O)N[C@H]1[C@H]([C@H](O)[C@H](O)CNC(=O)c2cc(C)c(O)c(C)c2)O[C@@](CCN2CCOC[C@@]23CCN(C(=O)OC(C)(C)C)C3)(c2nn[nH]n2)C[C@@H]1O [A-363] |
| 15200 nM | – | 1.4 °C | Cc1cc(C(=O)NC[C@@H](O)[C@@H](O)[C@@H]2O[C@@](OC3CCCCC3NC(=O)CNC(=O)COC3CCCC3)(C(=O)O)C[C@H](O)[C@H]2NC(=O)Cn2cc(C3CCCCC3)nn2)cc(C)c1O (some centres unmarked) [A-329] |
| 2830 nM | – | 2.9 °C | CC(=O)N[C@H]1[C@H]([C@H](O)[C@H](O)CNC(=O)c2cc(C)c(O)c(C)c2)O[C@@](CCN2CCOC[C@@]23CCN(C(=O)OC(C)(C)C)C3)(C(=O)NC#N)C[C@@H]1O [A-366] |
| 14100 nM | – | 2.2 °C | CC(=O)N[C@H]1[C@H]2O[C@](C(=O)O)(C/C=C/COC[C@@H](NC(=O)[C@H]3CCCOC3)COCCCOc3c(C)cc(cc3C)C(=O)NC[C@@H](O)[C@H]2O)C[C@@H]1O [A-337] |
| 59800 nM | – | 1.1 °C | Cc1cc2cc(C)c1OCCCNC(=O)[C@H](C)COCCCC[C@]1(C(=O)O)C[C@H](O)[C@@H](NC(=O)Cn3cc(C4CCCCC4)nn3)[C@@H](O1)[C@H](O)[C@H](O)CNC2=O [A-359] |

| EC50 [1] | DSF (dTmD) [2, 3] | DSF (dTmD) [2, 4] | SMILES |
| --- | --- | --- | --- |
| 9940 nM | – | 5.4 °C | Cc1cc(C(=O)NC[C@@H](O)[C@@H](O)[C@@H]2O[C@@](C/C=C/c3cccc(CNC(=O)c4ccn(C)c(=O)c4)c3)(C(=O)O)C[C@H](O)[C@H]2NC(=O)Cn2cc(C3CCCCC3)nn2)cc(C)c1O [A-273] |
| 19000 nM | – | 3.6 °C | Cc1cc2cc(C)c1OCCNC(=O)CCCCCCCC[C@]1(C(=O)O)C[C@H](O)[C@@H](NC(=O)Cn3cc(C4CCCCC4)nn3)[C@@H](O1)[C@H](O)[C@H](O)CNC2=O [A-347] |
| 1820 nM | – | 3.5 °C | CC(=O)N[C@H]1[C@H]([C@H](O)[C@@](C)(O)CNC(=O)c2cc(C)c(O)c(C)c2)O[C@@](CCN2CCOC[C@@]23CCN(C(=O)OC(C)(C)C)C3)(C(=O)O)C[C@@H]1O [A-205] |
| 220 nM | – | 7.2 °C | CC(=O)N[C@H]1[C@H]([C@H](O)[C@H](O)CNC(=O)c2cc(Cl)c(O)c(Cl)c2)O[C@@](CC2OC(C)(C)O[C@H]2c2cccc(C(=O)NCc3ccccc3)c2)(C(=O)O)C[C@@H]1O (some centres unmarked) [A-321] |
| 350 nM | 7.5 | – | CC(=O)N[C@H]1[C@H]([C@H](O)[C@H](O)CNC(=O)c2nc(C)oc2C)O[C@@](CCN2CCOC[C@@]23CCN(C(=O)OC(C)(C)C)C3)(C(=O)O)C[C@@H]1O [A-140] |
| 42 nM | 12.4 | – | CC(=O)N[C@H]1[C@H]([C@H](O)[C@H](O)CNC(=O)c2cccc(Br)c2)O[C@@](CCN2CCOC[C@@]23CCN(C(=O)OC(C)(C)C)C3)(C(=O)O)C[C@@H]1O [A-116] |
| 1010 nM | 6.8 | – | CC(=O)N[C@H]1[C@H]([C@H](O)[C@H](O)CNC(=O)c2ccccc2)O[C@@](CCN2CCOC[C@@]23CCN(C(=O)OC(C)(C)C)C3)(C(=O)O)C[C@@H]1O [A-187] |
| 2010 nM | – | 4.4 °C | CC(=O)N[C@H]1[C@H]([C@H](O)[C@H](O)CNC(=O)c2cc(C)c(O)c(C)c2)O[C@@](C/C=C/c2cccc(CNC(=O)c3ccc4[nH]cnc4c3)c2)(C(=O)O)C[C@@H]1O [A-236] |
| 98 nM | 9.1 | – | CC(=O)N[C@H]1[C@H]([C@H](O)[C@H](O)CNC(=O)c2cc(C)c(O)c(C)c2)O[C@@](CCN2C[C@@H](C)OC[C@@]23CCN(C(=O)OC(C)(C)C)C3)(C(=O)O)C[C@@H]1O [A-004] |
| 193 nM | – | 9.2 °C | CC(=O)N[C@H]1[C@H]([C@H](O)[C@H](O)CNC(=O)c2cc(C)c(O)c(C)c2)O[C@@](C/C=C/c2cccc(CNC(=O)c3ccc4[nH]c5c(c4c3)CCC(=O)N5C)c2)(C(=O)O)C[C@@H]1O [A-254] |
| 7940 nM | – | 4.2 °C | CC(=O)N[C@H]1[C@H]([C@H](O)[C@H](O)CNC(=O)c2cc(C)c(O)c(C)c2)O[C@@](C/C=C/c2cccc(CNC(=O)C3CCCOC3)c2)(C(=O)O)C[C@@H]1O (some centres unmarked) [A-293] |
| 37500 nM | – | −0.3 °C | CC(=O)N[C@H]1[C@H]([C@H](O)[C@H](O)CNC(=O)c2cc(C)c(O)c(C)c2)O[C@@](CCN2CCOC[C@@]23CCN(C(=O)OC(C)(C)C)C3)(C(=O)NS(C)(=O)=O)C[C@@H]1O [A-365] |
| 5260 nM | – | 3.5 °C | Cc1cc(C(=O)NC[C@@H](O)[C@@H](O)[C@@H]2O[C@@](CC3OC(C)(C)O[C@H]3c3cccc(CNC(=O)OC(C)(C)C)c3)(C(=O)O)C[C@H](O)[C@H]2NC(=O)Cn2cc(C3CCCCC3)nn2)cc(C)c1O (some centres unmarked) [A-301] |
| 3600 nM | 5.0 | – | CC(=O)N[C@H]1[C@H]([C@H](O)[C@H](O)CNC(=O)c2cc(F)c(F)c(F)c2)O[C@@](CCN2CCOC[C@@]23CCN(C(=O)OC(C)(C)C)C3)(C(=O)O)C[C@@H]1O [A-185] |
| 4810 nM | – | 5.0 °C | Cc1cc(C(=O)NC[C@@H](O)[C@@H](O)[C@@H]2O[C@@](OC3CCCCC3NC(=O)Cn3cc(CNC(=O)c4cccc(C#N)c4)nn3)(C(=O)O)C[C@H](O)[C@H]2NC(=O)Cn2cc(C3CCCCC3)nn2)cc(C)c1O (some centres unmarked) [A-330] |
| 138 nM | 8.9 | – | CC(=O)N[C@H]1[C@H]([C@H](O)[C@H](O)CNC(=O)c2cc(C)[nH]n2)O[C@@](CCN2CCOC[C@@]23CCN(C(=O)OC(C)(C)C)C3)(C(=O)O)C[C@@H]1O [A-156] |
| 24 nM | 12.5 | – | CC(=O)N[C@H]1[C@H]([C@H](O)[C@H](O)CNC(=O)c2cc(C)c(O)c(C)c2)O[C@@](CCN2CCOC[C@@]23CCN(C(=O)NC(C)C)C3)(C(=O)O)C[C@@H]1O [A-048] |
| 16 nM | 12.5 | – | CC(=O)N[C@H]1[C@H]([C@H](O)[C@H](O)CNC(=O)c2cc(C)c3[nH]ncc3c2)O[C@@](CCN2CCOC[C@@]23CCN(C(=O)OC(C)(C)C)C3)(C(=O)O)C[C@@H]1O [A-111] |
